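Cultured in 96-well plates, cells were exposed to test compound for 48 hours across five concentrations. Abbreviation: GI50, concentration required for 50% inhibition of growth. TGI denotes the concentration required for complete inhibition of growth.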

This note sets out measurements from PubChem BioAssay (NCI).

What all share (assay): inhibition of tumour cell growth, NCI panel, 48 h
For assay [1], the system named is HOP-62 NSCLC.
Assay [2] deals with OVCAR-8 ovarian.
The subject of assay [3] is NCI-H226 lung.
The subject of assay [4] is RXF 393 renal.
Assay [5] has as its system LOX IMVI melanoma.
The test system of assay [6] is MALME-3M melanoma.
The subject of assay [7] is OVCAR-3 ovarian.
Assay [8] deals with NCI-H460 lung.
The test system of assay [9] is SF-539 CNS.
Assay [10] concerns TK-10 renal.

Consider `N#CC(/C(=N\NC(N)=S)C(=O)NC1C2CC3CC(C2)CC1C3)c1ccc(Cl)cc1` (stereo not given), for which the TGI in assay [1], in [2], in [3], in assay [4], in assay [5] and in [6] was greater than 100 µM in each case. Besides, the TGI in [7], in assay [8], in assay [9] and in assay [10] was greater than 100 µM throughout.
As to `Cc1ccc(Nc2ccnc(Nc3cccc(C(N)=O)c3)n2)cc1O`, the GI50 was 5.5 µM in assay [1]; 6.51 µM in [2]; 5.43 µM in assay [3]; 0.895 µM in [4]; 3.02 µM in assay [5]; 6.27 µM in [6]. For the same compound, the GI50 is 6.65 µM in assay [7], 11.4 µM in assay [8], 3.46 µM in assay [9] and 6.39 µM in [10]. For the same compound, the TGI was greater than 19 µM in [1]; greater than 25 µM in assay [2]; greater than 23.7 µM in assay [3]; 4.84 µM in assay [4]; 7.22 µM in assay [5]; greater than 25 µM in [6]. Also, the TGI in assay [7] was greater than 25 µM; in [8], greater than 25 µM; in assay [9], 11.1 µM; in assay [10], 17.6 µM.
As for `CCNC1=CC(=O)c2ncccc2C1=O`, the GI50 was 0.583 µM in [1]; 3.04 µM in assay [2]; 1.85 µM in assay [3]; 5.65 µM in [4]; 1 µM in [5]; 1.03 µM in [6]. In addition, the GI50 is 0.807 µM in assay [7], 0.439 µM in [8], 1.89 µM in assay [9] and 15.6 µM in assay [10]. The TGI was found to be 2.04 µM in [1]; 14.2 µM in assay [2]; 4.42 µM in [3]; 17.9 µM in assay [4]; 3.22 µM in assay [5]; 2.23 µM in assay [6]. Further, the TGI was found to be 5.41 µM in assay [7], 2 µM in assay [8], 3.76 µM in [9] and 29.7 µM in assay [10].
On to `Cc1[nH]nc(C(=O)N/N=C/c2cccs2)c1N=NN(C)C`, for which the TGI in assay [1] came out at 50.1 µM; in assay [2], 33.1 µM; in [3], 70.1 µM; in [4], 36 µM; in [5], 34.7 µM; in assay [6], 56.7 µM. Moreover, the TGI in assay [7] is greater than 100 µM; in assay [8], 34.7 µM; in [9] it was 36.5 µM; in [10], 73.5 µM.
Turning to `COc1ccc2c3c([nH]c2c1)[C@H]1C[C@H]2[C@H](C[C@@H](O)[C@H](OC)[C@H]2C(=O)O)CN1CC3`, the TGI in assay [1], in assay [2], in [3], in assay [4], in [5] and in assay [6] was greater than 100 µM each time. The TGI in [7], in assay [8], in [9] and in assay [10] was greater than 100 µM in each case.
Regarding `O=C1CCCc2c(O)ccc(O)c21`, the TGI in assay [1], in assay [2], in [3], in [4], in assay [5] and in assay [6] was greater than 100 µM throughout. Also, the TGI in [7], in assay [8], in assay [9] and in [10] was greater than 100 µM throughout.
`CN1C=CN(Cc2ccc(-c3ccccn3)nc2)[CH-]1.CN1C=CN(Cc2ccc(-c3ccccn3)nc2)[CH-]1.[Au+3]`: the GI50 in assay [1] was 8.31 µM; in assay [2], 3.19 µM; in assay [3] it was 5.65 µM; in assay [4], 1.88 µM; in [5], 2.89 µM; in assay [6], 2.21 µM. Also, the GI50 in [7] was 2.41 µM; in [8], 3.37 µM; in [9] it was 2.34 µM; in [10], 5.09 µM. Moreover, the TGI in assay [1] is 25.8 µM; in [2], greater than 100 µM; in assay [3] it was greater than 64.2 µM; in assay [4], 17.8 µM; in assay [5], 13.4 µM; in assay [6], 10.5 µM. In addition, the TGI in assay [7] was 13.8 µM; in [8], greater than 100 µM; in [9], 10.3 µM; in assay [10], 27 µM.
In the case of `Cn1cc(/C=C2\C(=O)Nc3cccnc32)c2ccccc21`, the GI50 was greater than 25 µM in [1]; 16.9 µM in [2]; 10.8 µM in assay [3]; 10.8 µM in [4]; 7.77 µM in assay [5]; 24.5 µM in assay [6]. In addition, the GI50 in [7] is greater than 22.5 µM; in [8], 16.4 µM; in assay [9], greater than 25 µM; in assay [10] it was 12.3 µM. The TGI in assay [1], in [2], in [3], in assay [4], in assay [5] and in assay [6] was greater than 25 µM each time. Besides, the TGI in assay [7], in assay [8], in assay [9] and in assay [10] was greater than 25 µM each time.
Turning to `O=c1c2c(=NCCCN3CCCC3)cc3c(=O)n(CCCN4CCCC4)c(=O)c4c(NCCCN5CCCC5)cc(c(O)n1CCCN1CCCC1)c2c4-3`, the GI50 in assay [1] was 1.42 µM; in [2], 1.74 µM; in assay [3], 1.07 µM; in [4], 2.83 µM; in assay [5] it was 1.87 µM; in assay [6] it was 2.73 µM. Further, the GI50 in [7] is 2.88 µM; in assay [8], 1.78 µM; in assay [9], 2.42 µM; in assay [10], 2.22 µM. Moreover, the TGI was 4.54 µM in assay [1]; 12.3 µM in assay [2]; 7.8 µM in assay [3]; 8.23 µM in [4]; 4.19 µM in assay [5]; 7.98 µM in [6]. Besides, the TGI came to 7.03 µM in [7], 4.01 µM in assay [8], 8.98 µM in assay [9] and 8.65 µM in assay [10].
